From PubChem BioAssay (NCI)
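Dose response: 5 concentrations. Exposure: 48 h. Format: 96-well plates. Endpoint: linear interpolation; highest concentration if not reached. TGI denotes the concentration required for complete inhibition of growth.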

What was measured:
Assay in all cases: growth of human tumour cells (NCI), 48 h
MDA-MB-231 breast = test system: MDA-MB-231 breast
EKVX NSCLC = test system: EKVX NSCLC
SF-268 CNS = test system: SF-268 CNS
PC-3 prostate = test system: PC-3 prostate
NCI-H23 lung = test system: NCI-H23 lung
UACC-257 melanoma = test system: UACC-257 melanoma
M14 melanoma = test system: M14 melanoma
SNB-19 CNS = test system: SNB-19 CNS
OVCAR-3 ovarian = test system: OVCAR-3 ovarian
HT29 colon = test system: HT29 colon
LOX IMVI melanoma = test system: LOX IMVI melanoma
U251 CNS = test system: U251 CNS
CAKI-1 renal = test system: CAKI-1 renal
NCI-H460 lung = test system: NCI-H460 lung
RPMI-8226 leukemia = test system: RPMI-8226 leukemia
SR leukemia = test system: SR leukemia
A549 NSCLC = test system: A549 NSCLC
MCF7 breast = test system: MCF7 breast
CCRF-CEM leukemia = test system: CCRF-CEM leukemia
SK-OV-3 ovarian = test system: SK-OV-3 ovarian
NCI-H522 lung = test system: NCI-H522 lung
DU-145 prostate = test system: DU-145 prostate
MALME-3M melanoma = test system: MALME-3M melanoma
MDA-MB-435 = test system: MDA-MB-435
OVCAR-8 ovarian = test system: OVCAR-8 ovarian
SK-MEL-2 melanoma = test system: SK-MEL-2 melanoma
SF-295 CNS = test system: SF-295 CNS
K-562 leukemia = test system: K-562 leukemia
HOP-92 NSCLC = test system: HOP-92 NSCLC
HOP-62 NSCLC = test system: HOP-62 NSCLC
SN12C renal = test system: SN12C renal
NCI/ADR-RES ovarian = test system: NCI/ADR-RES ovarian
HCC-2998 colon = test system: HCC-2998 colon
OVCAR-5 ovarian = test system: OVCAR-5 ovarian
COLO 205 colon = test system: COLO 205 colon
NCI-H226 lung = test system: NCI-H226 lung
SK-MEL-28 melanoma = test system: SK-MEL-28 melanoma
UACC-62 melanoma = test system: UACC-62 melanoma
MDA-N = test system: MDA-N
SK-MEL-5 melanoma = test system: SK-MEL-5 melanoma
A498 renal = test system: A498 renal
IGROV1 ovarian = test system: IGROV1 ovarian
RXF 393 renal = test system: RXF 393 renal
SF-539 CNS = test system: SF-539 CNS
SW-620 colon = test system: SW-620 colon
BT-549 breast = test system: BT-549 breast
HL-60(TB) leukemia = test system: HL-60(TB) leukemia
HCT-15 colon = test system: HCT-15 colon
HS 578T breast = test system: HS 578T breast
HCT-116 colon = test system: HCT-116 colon
786-0 renal = test system: 786-0 renal
ACHN renal = test system: ACHN renal
TK-10 renal = test system: TK-10 renal
UO-31 renal = test system: UO-31 renal
MOLT-4 leukemia = test system: MOLT-4 leukemia
KM12 colon = test system: KM12 colon
T-47D breast = test system: T-47D breast
OVCAR-4 ovarian = test system: OVCAR-4 ovarian

CC(C)(C)C1CCC2c3c([nH]c4ccccc34)C3C(=O)N(c4ccc(C(=O)O)cc4)C(=O)C3C2C1 (configuration not stated)
TGI (MDA-MB-231 breast): 29.2 µM | TGI (EKVX NSCLC): 39.7 µM | TGI (SF-268 CNS): 28.4 µM | TGI (PC-3 prostate): 26.3 µM | TGI (NCI-H23 lung): 40.8 µM | TGI (UACC-257 melanoma): 28.3 µM | TGI (M14 melanoma): 37.3 µM | TGI (SNB-19 CNS): 34.6 µM | TGI (OVCAR-3 ovarian): 25.8 µM | TGI (HT29 colon): 28.7 µM | TGI (LOX IMVI melanoma): 28.8 µM | TGI (U251 CNS): 26.2 µM | TGI (CAKI-1 renal): 31 µM | TGI (NCI-H460 lung): 35.4 µM | TGI (RPMI-8226 leukemia): > 100 µM | TGI (SR leukemia): > 100 µM | TGI (A549 NSCLC): 25.8 µM | TGI (MCF7 breast): 26.4 µM | TGI (CCRF-CEM leukemia): 12.5 µM | TGI (SK-OV-3 ovarian): 32.1 µM | TGI (NCI-H522 lung): 41.6 µM | TGI (DU-145 prostate): 34.7 µM | TGI (MALME-3M melanoma): 28.9 µM | TGI (MDA-MB-435): 11.1 µM | TGI (OVCAR-8 ovarian): 26.6 µM | TGI (SK-MEL-2 melanoma): 29.1 µM | TGI (SF-295 CNS): 23.4 µM | TGI (K-562 leukemia): 17.9 µM | TGI (HOP-92 NSCLC): 25.7 µM | TGI (HOP-62 NSCLC): 15.8 µM | TGI (SN12C renal): 25.6 µM | TGI (NCI/ADR-RES ovarian): 36 µM | TGI (HCC-2998 colon): 29 µM | TGI (OVCAR-5 ovarian): 36.5 µM | TGI (COLO 205 colon): 40.4 µM | TGI (NCI-H226 lung): 40.3 µM | TGI (SK-MEL-28 melanoma): 30.3 µM | TGI (UACC-62 melanoma): 30.4 µM | TGI (MDA-N): 24.7 µM | TGI (SK-MEL-5 melanoma): 25.7 µM | TGI (A498 renal): 34.6 µM | TGI (IGROV1 ovarian): 40.1 µM | TGI (RXF 393 renal): 29.5 µM | TGI (SF-539 CNS): 34.8 µM | TGI (SW-620 colon): 26.5 µM | TGI (BT-549 breast): 30.1 µM | TGI (HL-60(TB) leukemia): 15.4 µM | TGI (HCT-15 colon): 25 µM | TGI (HS 578T breast): 39 µM | TGI (HCT-116 colon): 29.7 µM | TGI (786-0 renal): 29.1 µM | TGI (ACHN renal): 24.5 µM | TGI (TK-10 renal): 31.3 µM | TGI (UO-31 renal): 30.4 µM

COC(=O)c1c(C(=O)OC)c2ccc(-c3ccc(Cl)cc3)nn2c1C(=O)c1ccc([N+](=O)[O-])cc1
TGI (MDA-MB-231 breast): > 100 µM | TGI (EKVX NSCLC): 84.4 µM | TGI (SF-268 CNS): > 100 µM | TGI (PC-3 prostate): > 100 µM | TGI (NCI-H23 lung): > 100 µM | TGI (UACC-257 melanoma): > 100 µM | TGI (M14 melanoma): > 100 µM | TGI (SNB-19 CNS): > 100 µM | TGI (OVCAR-3 ovarian): > 100 µM | TGI (HT29 colon): > 100 µM | TGI (LOX IMVI melanoma): > 100 µM | TGI (U251 CNS): > 100 µM | TGI (CAKI-1 renal): 76.2 µM | TGI (NCI-H460 lung): > 100 µM | TGI (RPMI-8226 leukemia): 55.3 µM | TGI (A549 NSCLC): > 100 µM | TGI (MCF7 breast): > 100 µM | TGI (CCRF-CEM leukemia): > 100 µM | TGI (SK-OV-3 ovarian): > 100 µM | TGI (NCI-H522 lung): 37.3 µM | TGI (MOLT-4 leukemia): 82.6 µM | TGI (DU-145 prostate): > 100 µM | TGI (MDA-MB-435): > 100 µM | TGI (OVCAR-8 ovarian): > 100 µM | TGI (SK-MEL-2 melanoma): > 100 µM | TGI (SF-295 CNS): > 100 µM | TGI (K-562 leukemia): > 100 µM | TGI (HOP-92 NSCLC): 39.5 µM | TGI (HOP-62 NSCLC): > 100 µM | TGI (SN12C renal): > 100 µM | TGI (NCI/ADR-RES ovarian): > 100 µM | TGI (HCC-2998 colon): > 100 µM | TGI (OVCAR-5 ovarian): > 100 µM | TGI (COLO 205 colon): > 100 µM | TGI (NCI-H226 lung): > 100 µM | TGI (SK-MEL-28 melanoma): > 100 µM | TGI (UACC-62 melanoma): > 100 µM | TGI (KM12 colon): > 100 µM | TGI (MDA-N): > 100 µM | TGI (SK-MEL-5 melanoma): > 100 µM | TGI (A498 renal): > 100 µM | TGI (RXF 393 renal): 55.5 µM | TGI (SF-539 CNS): > 100 µM | TGI (SW-620 colon): > 100 µM | TGI (HL-60(TB) leukemia): > 100 µM | TGI (HCT-15 colon): > 100 µM | TGI (T-47D breast): > 100 µM | TGI (HCT-116 colon): > 100 µM | TGI (786-0 renal): > 100 µM | TGI (ACHN renal): > 100 µM | TGI (TK-10 renal): 57.9 µM | TGI (UO-31 renal): > 100 µM | TGI (OVCAR-4 ovarian): > 100 µM
